Results as given in PubChem BioAssay AID248 (DTP/NCI, 2004).
Several values for one entry are separate records, joined by “and”; a condition that tells them apart may be missing. Identical values can stand only once. Toxic doses and inconclusive results are not listed. Rule as the data show it: active = T/C of 150% or more; inactive = T/C below 125%.

System: L1210 leukemia ip in BDF1 mice, survival T/C
Assay: NCI In Vivo Anticancer Drug Screen. Data for tumor model L1210 Leukemia (intraperitoneal) in B6D2F1 (BDF1) mice
Details: endpoint: mean survival time, higher = longer survival
How it was run: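 Transplantable tumor model; survival measured in treated vs vehicle control mice. Value = treated/control.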

[1] = dose: 100.0 mg/kg/injection, schedule: Q01DX009 (ip), vehicle: Klucel (hydroxypropylcellulose) (HPC)
[2] = dose: 200.0 mg/kg/injection, schedule: Q01DX009 (ip), vehicle: Klucel (hydroxypropylcellulose) (HPC)
[3] = dose: 400.0 mg/kg/injection, schedule: Q01DX009 (ip), vehicle: Klucel (hydroxypropylcellulose) (HPC)
[4] = dose: 100.0 mg/kg/injection, schedule: Q01DX001 (ip), vehicle: saline
[5] = dose: 200.0 mg/kg/injection, schedule: Q01DX001 (ip), vehicle: saline
[6] = dose: 400.0 mg/kg/injection, schedule: Q01DX001 (ip), vehicle: saline
[7] = dose: 25.0 mg/kg/injection, schedule: Q01DX009 (ip), vehicle: saline
[8] = dose: 50.0 mg/kg/injection, schedule: Q01DX009 (ip), vehicle: saline
[9] = dose: 100.0 mg/kg/injection, schedule: Q04DX003 (ip), vehicle: saline
[10] = dose: 75.0 mg/kg/injection, schedule: Q01DX001 (ip), vehicle: saline
[11] = dose: 150.0 mg/kg/injection, schedule: Q01DX001 (ip), vehicle: saline
[12] = dose: 12.5 mg/kg/injection, schedule: Q01DX009 (ip), vehicle: saline
[13] = dose: 100.0 mg/kg/injection, schedule: Q01DX009 (ip), vehicle: saline with Tween-80
[14] = dose: 200.0 mg/kg/injection, schedule: Q01DX009 (ip), vehicle: saline with Tween-80

Measured: T/C

O=C(Nc1ccccc1O)c1ccccc1Cl
inactive: [1] 96 % of control | [2] 98 % of control | [3] 91 % of control

S=P(NCCS)(N1CC1)N1CC1
inactive: [4] 106 % of control | [5] 101 % of control | [6] 101 % of control

COc1cc(C=O)ccc1OC(=O)Nc1ccc(F)c([N+](=O)[O-])c1
inactive: dose: 25.0 mg/kg/injection, schedule: Q01DX009 (ip), vehicle: other 97 % of control | dose: 50.0 mg/kg/injection, schedule: Q01DX009 (ip), vehicle: other 92 % of control | dose: 100.0 mg/kg/injection, schedule: Q01DX009 (ip), vehicle: other 97 % of control and 98 % of control

O=C(C(=O)c1ccc(O)cc1)c1ccccc1
inactive: dose: 100.0 mg/kg/injection, schedule: Q01DX001 (ip), vehicle: carboxymethylcellulose (CMC) 103 % of control | dose: 200.0 mg/kg/injection, schedule: Q01DX001 (ip), vehicle: carboxymethylcellulose (CMC) 97 % of control | dose: 400.0 mg/kg/injection, schedule: Q01DX001 (ip), vehicle: carboxymethylcellulose (CMC) 97 % of control

CC1(c2cccs2)C(=O)N(Cl)C(=O)N1Cl (stereo unspecified)
inactive: [7] 110 % of control | [8] 106 % of control | dose: 100.0 mg/kg/injection, schedule: Q01DX009 (ip), vehicle: saline 104 % of control | [9] 96 % of control

O=C/C=C/Nc1ccccc1
inactive: [9] 105 % of control | dose: 200.0 mg/kg/injection, schedule: Q04DX003 (ip), vehicle: saline 108 % of control | dose: 400.0 mg/kg/injection, schedule: Q04DX003 (ip), vehicle: saline 100 % of control

CCN(C(C)=O)c1ccccc1C#N
inactive: [10] 107 % of control | [11] 107 % of control

FC(F)(F)c1ccc2c(c1)N(CCCN1CCN(CCN3CCCCC3)CC1)c1ccccc1S2
inactive: [12] 93 % of control | dose: 12.5 mg/kg/injection, schedule: Q04DX003 (ip), vehicle: saline 94 % of control | [7] 86 % of control | dose: 25.0 mg/kg/injection, schedule: Q04DX003 (ip), vehicle: saline 96 % of control | dose: 50.0 mg/kg/injection, schedule: Q04DX003 (ip), vehicle: saline 92 % of control

CN1C(c2ccc(Cl)cc2)OCC1(C)C (stereo unspecified)
inactive: dose: 100.0 mg/kg/injection, schedule: Q04DX003 (ip), vehicle: saline sonified 90 % of control | dose: 200.0 mg/kg/injection, schedule: Q04DX003 (ip), vehicle: saline sonified 92 % of control

C=CCC(C(=O)OC)C(=O)C(C)(C)C (stereo unspecified)
inactive: dose: 50.0 mg/kg/injection, schedule: Q01DX009 (ip), vehicle: saline with Tween-80 100 % of control | [13] 92 % of control | [14] 100 % of control

NC(=O)CC(NC(=O)OCc1ccccc1)C(=O)OCc1ccccc1 (stereo unspecified)
inactive: [13] 106 % of control | dose: 100.0 mg/kg/injection, schedule: Q04DX003 (ip), vehicle: saline with Tween-80 96 % of control | [14] 95 % of control | dose: 200.0 mg/kg/injection, schedule: Q04DX003 (ip), vehicle: saline with Tween-80 96 % of control | dose: 400.0 mg/kg/injection, schedule: Q01DX009 (ip), vehicle: saline with Tween-80 93 % of control | dose: 400.0 mg/kg/injection, schedule: Q04DX003 (ip), vehicle: saline with Tween-80 91 % of control

OC1(CCCc2ccccc2)CCNCC1
inactive: [10] 104 % of control | [11] 110 % of control

Clc1ccc(/C=N/c2snc3ccccc23)c(Cl)c1
inactive: dose: 100.0 mg/kg/injection, schedule: Q04DX002 (ip), vehicle: Klucel (hydroxypropylcellulose) (HPC) 95 % of control | dose: 200.0 mg/kg/injection, schedule: Q04DX002 (ip), vehicle: Klucel (hydroxypropylcellulose) (HPC) 88 % of control | dose: 400.0 mg/kg/injection, schedule: Q04DX002 (ip), vehicle: Klucel (hydroxypropylcellulose) (HPC) 92 % of control

CCCCB1OCCCO1
inactive: dose: 100.0 mg/kg/injection, schedule: Q01DX001 (ip), vehicle: Klucel (hydroxypropylcellulose) (HPC) 98 % of control | dose: 200.0 mg/kg/injection, schedule: Q01DX001 (ip), vehicle: Klucel (hydroxypropylcellulose) (HPC) 88 % of control | dose: 400.0 mg/kg/injection, schedule: Q01DX001 (ip), vehicle: Klucel (hydroxypropylcellulose) (HPC) 92 % of control

O=C(Nc1ccc([N+](=O)[O-])cc1)c1cc(N2CCCC2)ccn1
inactive: [4] 100 % of control | [5] 96 % of control | [6] 100 % of control

NCCCn1c2ccccc2c2cnccc21
inactive: [12] 101 % of control | [7] 101 % of control | dose: 25.0 mg/kg/injection, schedule: Q04DX003 (ip), vehicle: water 87 % of control | [8] 107 % of control | dose: 50.0 mg/kg/injection, schedule: Q01DX009 (ip), vehicle: water 104 % of control | dose: 50.0 mg/kg/injection, schedule: Q04DX003 (ip), vehicle: water 92 % of control | dose: 100.0 mg/kg/injection, schedule: Q01DX009 (ip), vehicle: water 103 % of control | dose: 100.0 mg/kg/injection, schedule: Q04DX003 (ip), vehicle: water 104 % of control and 87 % of control

N=C(N)c1ccccc1
inactive: dose: 100.0 mg/kg/injection, schedule: Q01DX Z (ip), vehicle: methylcellulose (MC) 94 % of control | dose: 150.0 mg/kg/injection, schedule: Q01DX Z (ip), vehicle: methylcellulose (MC) 96 % of control and 89 % of control

CC(C)N(CCSc1ncnc2nc[nH]c12)C(C)C
inactive: [10] 96 % of control

O=S(=O)(c1ccc(O)c(F)c1)c1ccc(O)c(F)c1
inactive: dose: 100.0 mg/kg/injection, schedule: Q04DX002 (ip), vehicle: gum acacia 90 % of control | dose: 200.0 mg/kg/injection, schedule: Q04DX002 (ip), vehicle: gum acacia 101 % of control

O=C(CNC(=O)OCc1ccccc1)NCCCCCCCCCCNC(=O)CNC(=O)OCc1ccccc1
inactive: dose: 10.0 mg/kg/injection, schedule: Q01DX Z (ip), vehicle: saline 104 % of control | dose: 30.0 mg/kg/injection, schedule: Q01DX Z (ip), vehicle: saline 90 % of control | dose: 100.0 mg/kg/injection, schedule: Q01DX Z (ip), vehicle: saline 90 % of control | dose: 300.0 mg/kg/injection, schedule: Q01DX Z (ip), vehicle: saline 95 % of control

COc1ccc2c(c1)CCC1C2CCC2(C)C(=O)OC(=O)C12 (stereo unspecified)
inactive: dose: 100.0 mg/kg/injection, schedule: Q01DX009 (sc), vehicle: steriod suspending solution 109 % of control | dose: 200.0 mg/kg/injection, schedule: Q01DX009 (sc), vehicle: steriod suspending solution 98 % of control | dose: 400.0 mg/kg/injection, schedule: Q01DX009 (sc), vehicle: steriod suspending solution 103 % of control

Cc1cc(C)c(S(=O)(=O)O)cc1[N+](=O)[O-]
inactive: [1] 96 % of control | [2] 101 % of control | [3] 98 % of control
